The record followed here is patent US20230348376A1 (TEIJIN PHARMA LIMITED, priority 2020, published 2023).

The EC50 is the concentration at which the effect is half-maximal. Low readings indicate higher potency in that assay, high ones lower potency in that assay.

The test system of data set [1] is rat oligodendrocyte progenitor cells. As to the kind of experiment: Promotive activity of rat oligodendrocyte progenitor cell differentiation-2 (immunostaining of MBP). Type of data set: cell-based. The conditions noted are these: Test 1; vitamin D derivative 2 μM, T3 30 nM; 4 days. The procedure, abridged: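 Rat OPCs prepared by shaking in separation medium about 22 h at 37 °C, 200 rpm, and collecting the supernatant.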

The subject of another data set is mouse cuprizone model. The data set can be described thus: Myelin regeneration promoting action in mouse cuprizone model (LFB staining of corpus callosum). It counts as in vivo. As to conditions: 4 weeks after 6 weeks cuprizone diet, untreated = 100%. The text has this:
C57BL/6J mice (8 weeks old, male) were fed a diet containing 0.3% cuprizone (bis(cyclohexanone)oxaldihydrazone) (Research Diets, Inc. #D17042709) for 6 weeks to induce demyelination. Subsequently, the mice were divided into groups of 8 mice based on the body weight, the diet was switched to a cuprizone-free diet (Research Diets, Inc. #D10001), and administration of the test compound or vehicle was started. […] After administration of 4 weeks, the mice were euthanized, perfused with a 4% paraformaldehyde solution, and then brain sampling was performed. The brain sample obtained was embedded in paraffin to prepare a coronal section specimen at Bregma+1. The specimen was stained with Luxor Fast Blue (LFB) to visualize the myelin sheath, and images were acquired using a fluorescence microscope (KEYENCE #BZ-X710). The corpus callosum area and the LFB staining positive area in the corpus callosum of the obtained pathological specimen image were measured using an image analysis application (KEYENCE #BZ-H3C/BZ-H3XD), and the ratio (LFB staining positive area in the corpus callosum/corpus callosum area) was calculated. The intact group is a non-pathogenic group, and the […] control group were sampled after feeding the diet containing 0.3% cuprizone for 6 weeks.
In the table, the ratio of LFB staining positive area in the corpus callosum/corpus callosum area of the untreated group, fed with the cuprizone-free diet for 6 weeks, was regarded as 100%. As a result, the control group, fed with the cuprizone-containing diet for 6 weeks, decreased the ratio to 23.6%, and was confirmed to progress demyelination. The group, in which the cuprizone-containing diet was fed for 6 weeks and switched to the cuprizone-free diet, and the vehicle was administered, improved the ratio of area of LFB staining positive/area of corpus callosum to 50.1%. […] In addition, GSK239512 described in WO2013/107336 pamphlet was evaluated in the test to show the ratio of LFB staining positive area/corpus callosum area of 45.8%, in which no demyelination regeneration promoting action was shown as compared with the vehicle-administered group.

Data set [2] is described as follows: Evaluation of brain penetration in mice (blood and brain concentration at brain Cmax). The conditions noted are these: 1 mg/kg single oral dose, C57BL/6J mice; for Concentration in blood (mean ± SD) at brain Cmax / Concentration in brain (mean ± SD) at brain Cmax: n=3; for Kp: male, C57BL/6J, mouse, brain/plasma, po, 1 mg/kg, read-out: Concentration in brain/in blood ratio at brain Cmax. Type of data set: in vivo, mouse. The procedure, abridged: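 Male C57BL/6J mice (8 weeks, n=3) dosed orally once at 1 […] mg/kg; plasma and brain collected at 0.25, 0.5, 1, 2, 4 and 8 h. Compound extracted with acetonitrile from brain homogenate and plasma, quantified by LC/MS/MS.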

The target in another data set is T1, human VDR (Homo sapiens, UniProt P11473).
T1 sequence (P11473 1-427): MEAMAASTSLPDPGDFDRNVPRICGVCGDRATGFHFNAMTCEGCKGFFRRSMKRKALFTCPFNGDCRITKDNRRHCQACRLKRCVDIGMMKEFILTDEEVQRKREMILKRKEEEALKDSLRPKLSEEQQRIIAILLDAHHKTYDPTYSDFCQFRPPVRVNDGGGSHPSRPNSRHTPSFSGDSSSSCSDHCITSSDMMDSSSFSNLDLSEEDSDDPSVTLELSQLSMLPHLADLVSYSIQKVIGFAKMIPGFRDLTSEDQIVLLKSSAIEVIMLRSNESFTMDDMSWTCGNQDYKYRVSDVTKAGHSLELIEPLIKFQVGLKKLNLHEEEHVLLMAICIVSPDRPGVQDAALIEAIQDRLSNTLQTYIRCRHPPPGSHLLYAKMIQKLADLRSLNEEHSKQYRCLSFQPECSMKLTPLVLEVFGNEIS
T1 sequence (P19793 1-462 partner): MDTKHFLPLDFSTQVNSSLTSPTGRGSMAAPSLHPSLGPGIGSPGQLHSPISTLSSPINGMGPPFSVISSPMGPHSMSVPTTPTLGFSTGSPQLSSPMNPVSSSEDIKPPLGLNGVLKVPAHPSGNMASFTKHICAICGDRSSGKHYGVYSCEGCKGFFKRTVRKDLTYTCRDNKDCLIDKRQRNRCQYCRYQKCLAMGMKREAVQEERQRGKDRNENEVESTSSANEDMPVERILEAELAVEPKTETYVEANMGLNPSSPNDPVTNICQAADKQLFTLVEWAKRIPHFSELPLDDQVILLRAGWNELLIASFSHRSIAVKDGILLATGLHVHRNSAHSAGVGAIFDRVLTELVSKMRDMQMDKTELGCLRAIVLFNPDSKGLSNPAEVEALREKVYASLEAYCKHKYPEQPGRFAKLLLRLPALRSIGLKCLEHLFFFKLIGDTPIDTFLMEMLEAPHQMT
The data set can be described thus: Evaluation of VDR transcription activity in human osteoblasts (HOS cells), luciferase reporter. As to conditions: Activity (EC50, VDR transcription activity), HOS cells transfected with human VDR, human RXRα and DR3 luciferase reporter; 21 hours. On the technique in general: A reporter such as luciferase makes a cellular process visible.

The test system of data set [3] is rat oligodendrocyte progenitor cells. As to the kind of experiment: Promotive activity of rat oligodendrocyte progenitor cell differentiation-1 (MBP gene expression, mRNA). The conditions noted are these: 4 days. Type of data set: cell-based. The method, boiled down: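 Primary OPCs from 1-day-old SD rat forebrain, isolated by shaking off mixed glial cultures and seeded at 2×10^3 cells/well in B27/CNTF (10 ng/mL) differentiation medium with compound. MBP mRNA measured by one-step TaqMan real-time PCR and expressed as MBP/β-actin ratio.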

As to `C[C@H](CN1CC[C@@H](C(C)(F)F)C1)[C@H]1CC[C@H]2/C(=C/C=C3C[C@@H](O)C[C@H](O)C3)CCC[C@]12C` [Compound B034, (1R,3R)-5-(2-((1R,3aS,7aR,E)-1-((S)-1-((R)-3-(1,1-difluoroethyl)pyrrolidin-1-yl)propan-2-yl)-7a-methyloctahydro-4H-inden-4-ylidene)ethylidene)cyclohexane-1,3-diol], the “Mean (number of MBP-positive cells/number of Hoechst33342-positive cells)” value in data set [1] was determined as 0.57. Also, in the data set with mouse cuprizone model (6 μg/kg oral once a day), the “Ratio (%): area of LFB staining positive/area of corpus callosum, mean” value was 88.1%. For the same compound, in data set [2], the “Concentration in blood (mean ± SD) at brain Cmax” value came to 251 ± 9 nM, the “Concentration in brain (mean ± SD) at brain Cmax” value was 562 ± 50 pmol/g and the Kp was 2.24.
As for `C[C@H](CN1CC[C@@H](CC(F)F)C1)[C@H]1CC[C@H]2/C(=C/C=C3C[C@@H](O)C[C@H](O)C3)CCC[C@]12C` [Compound B043, (1R,3R)-5-(2-((1R,3aS,7aR,E)-1-((S)-1-((S)-3-(2,2-difluoroethyl)pyrrolidin-1-yl)propan-2-yl)-7a-methyloctahydro-4H-inden-4-ylidene)ethylidene)cyclohexane-1,3-diol], the EC50 at human VDR lay in the range of 10 to 100 nM. Moreover, in the data set with mouse cuprizone model (2 μg/kg oral once a day), the “Ratio (%): area of LFB staining positive/area of corpus callosum, mean” value was determined as 84.9%. In data set [2], the “Concentration in blood (mean ± SD) at brain Cmax” value is on record as 74 ± 1 nM, the “Concentration in brain (mean ± SD) at brain Cmax” value is given as 80 ± 9 pmol/g and the Kp worked out at 1.08.
`O=C1CCCN1c1ccc(Oc2ccc3c(c2)CCN(C2CCC2)CC3)nc1` [GSK239512, reference compound]: the “enhancement in the MBP gene expression compared with the wells added with DMSO” value in data set [3] (1 μM) was determined as 1.8 times. Also, the activation at 1 µM in data set [3] (Rattus norvegicus, Oligodendrocyte progenitor cell, 96 h, read-out: promotive activity at T3 base (MBP gene expression; DMSO 0%, T3 100%), MBP/β actin mRNA) was 18%. The “Ratio (%): area of LFB staining positive/area of corpus callosum, mean” value with mouse cuprizone model (10 mg/kg oral once a day) stood at 45.8%.
